Measured values reported in ChEMBL document CHEMBL1131699, “Monoacetyldiglycerides as new Ca2+ mobilizing agents in rat pancreatic acinar cells” (1999).
Calls of active or inactive are those of the source. The calls are words filed in the database; no cut-off is given here.

Columns and labels:
[1] = organism: Rattus norvegicus; assay: Compound was tested in vitro for its ability to increase [Ca+2] in pancreatic acinar cells at a concentration of 0.01 mg/mL.; type: functional
[2] = organism: Rattus norvegicus; assay: Compound was tested in vitro for its ability to increase [Ca+2] in pancreatic acinar cells at a concentration of 0.01 mg/mL; Active; type: functional, cell-based
[3] = organism: Rattus norvegicus; assay: Compound was tested in vitro for its ability to increase the rate of [Ca+2] mobilization in pancreatic acinar cells; type: functional

SMILES | Increase in [Ca+2] [1] [nM] | Increase in [Ca+2] [2] | Rate of [Ca+2] increase [3] [nM/min]
CCCCCCCC/C=C\CCCCCCCC(=O)OCC(COC(C)=O)OC(=O)CCCCCCCCCCCCCCC (centres undefined) | 31.2 |  | 
CCCCCCCC/C=C\CCCCCCCC(=O)OC(COC(C)=O)COC(=O)CCCCCCCCCCCCCCC (centres undefined) | 26.6 |  | 
CCCCCCCCCCCCCCCC(=O)OCC(COC(C)=O)OC(=O)[C@H]1C[C@@H]1c1ccccc1 (some centres undefined) |  | Active | 
CCCCC/C=C\C/C=C\CCCCCCCC(=O)OC(COC(C)=O)COC(=O)CCCCCCCCCCCCCCC (centres undefined) [MOSEDIPIMOD] | 84.9 |  | 9.8
CCCCC/C=C\C/C=C\C/C=C\C/C=C\CCCC(=O)OC(COC(C)=O)COC(=O)CCCCCCCCCCCCCCC (centres undefined) | 32.8 |  | 
CC/C=C\C/C=C\C/C=C\C/C=C\C/C=C\C/C=C\CCC(=O)OC(COC(C)=O)COC(=O)CCCCCCCCCCCCCCC (centres undefined) | 75.2 |  | 26.7
CC/C=C\C/C=C\C/C=C\CCCCCCCC(=O)OC(COC(C)=O)COC(=O)CCCCCCCCCCCCCCC (centres undefined) |  | Active | 
